Columns and labels:
[1] = Pharmacokinetics of FOLFIRI components with and without veliparib (relative bioavailability); conditions: for 90% CIs for the relative bioavailability (Cmax and AUCt): presence (cycle 1 day 15) vs absence (cycle 1 day 1) of veliparib; for Cmax: human, plasma, intravenous, central value
Method: Treatment-emergent adverse events (TEAEs) were assessed from the time of study drug administration until 30 days following discontinuation of study drug. TEAEs were assessed according to the National Cancer Institute Common Terminology Criteria for Adverse Events version 4.0. In dose-escalation cohorts, blood samples were collected on day 15 of cycle 1 for veliparib PK, and on days 1 and 15 of cycle 1 for PK assessment of the FOLFIRI components irinotecan, SN-38, folinic acid (leucovorin), and 5-FU. Exploratory efficacy end points included objective response rate (ORR), time to disease progression (TTP), duration of overall response (DOR), and ECOG performance status. Objective response rate included confirmed complete response (CR) and partial response (PR). Objective response rate evaluation was based on Response Evaluation Criteria in Solid Tumours version 1.1. Objective response rate was calculated for all patients with one or more measurable lesions at baseline. Time to disease progression was defined as the number of days from the date the patient started study drug to the date of the patient’s disease progression. Duration of overall response was defined as the number of days from the day criteria were met for CR or PR (whichever was recorded first) to the date that PD was objectively documented. If a patient was still responding, the patient’s data were censored at the date of the last study visit at which a tumour assessment was performed. Analyses of change and/or percentage change from baseline for tumour size were performed for each scheduled post-baseline visit and for the final visit. ECOG performance status was assessed at all visits, with descriptive statistics summarised for each assessment. In addition, a mean change from baseline to each assessment time was summarised.
The sample size was based on clinical justification. No specific statistical hypothesis tests were planned, with descriptive statistics used for the analysis of safety, PK, and tumour response data. The study population for all safety and preliminary efficacy analyses included patients who received one or more doses of study medication. Data from parts 1–3 of the dose-escalation cohort were combined for assessment of the effect of veliparib on the PK of irinotecan, SN-38, and folinic acid. Linear mixed effects models were performed on natural logarithmically transformed maximum plasma concentration (Cmax) and area under the plasma or serum concentration-time curve (AUC) to compare exposure of irinotecan, SN-38, and folinic acid with and without the administration of veliparib. Point estimates and the corresponding 90% confidence intervals (CIs) of the ratio of central values with and without veliparib administration were calculated.

[2] = system: patients with advanced solid tumours; conditions: human, in vivo
Description: This phase 1 open-label, multicentre, dose-escalation, and safety expansion study evaluated veliparib in combination with bimonthly FOLFIRI in patients with advanced solid tumours. The primary objectives were to determine the maximum tolerated dose (MTD) and establish the recommended phase 2 dose (RP2D) of the combination therapy. Secondary objectives were to assess the safety and tolerability, PK profile, and exploratory efficacy of the combination for each of the FOLFIRI regimens. Patients received veliparib and bimonthly FOLFIRI in 28-day cycles. Veliparib was administered on days 15–19 in cycle 1 and on days 1–5 and 15–19 in subsequent cycles (Fig. 1). Patients with stable disease or better status could continue veliparib and bimonthly FOLFIRI at the investigator’s discretion until progressive disease (PD), unacceptable toxicity, or FOLFIRI discontinuation. The trial was registered with the ClinicalTrials.gov registry (NCT01123876) and was approved by appropriate independent ethics committees/institutional review boards prior to initiation. The study was performed in accordance with the 1964 Declaration of Helsinki and its later amendments. Written informed consent was obtained from all patients before study enrollment.
Dose escalation occurred in three parts to evaluate the MTD/RP2D of three different bimonthly FOLFIRI regimens in combination with veliparib (Fig. 1). A minimum of three patients per dose level were included for dose-toxicity modeling. In part 1, dose escalation began with veliparib twice daily (BID) on days 15–19 of cycle 1 (to allow the determination of single-agent PK for irinotecan, the active metabolite of irinotecan (SN-38), folinic acid, and 5-FU on cycle 1 day 1). In parts 2 and 3, dose escalation began with veliparib BID on day 15 of cycle 1. The differences in the dosing schedules of parts 1, 2, and 3 relate to dosing of irinotecan and 5-FU, and are detailed in Fig. 1. In all parts, veliparib continued to be administered on days 1–5 and 15–19 of each subsequent 28-day cycle. […]

[3] = system: platinum-sensitive relapsed ovarian cancer and a BRCA1/2 mutation; design: method as in PMID 28754483; conditions: maintenance treatment, vs placebo; cited from earlier work
[4] = FOLFIRI + veliparib, cycle 1 day 15

AUCt, central value, test [1, 4]	Cmax, central value, test [1, 4]	AUCt, central value, reference ([1]; FOLFIRI alone, cycle 1 day 1)	Cmax, central value, reference ([1]; FOLFIRI alone, cycle 1 day 1)	SMILES	90% CIs for the relative bioavailability (Cmax and AUCt) [1]	other results
–	–	–	–	O=c1[nH]cc(F)c(=O)[nH]1 [5-FU, 5-fluorouracil]	–	Median ratio of 5-FU concentrations, cycle 1 day 15 to cycle 1 day 1 ([1]; 2 h after the start of infusion): 1.03; Median ratio of 5-FU concentrations, cycle 1 day 15 to cycle 1 day 1 ([1]; 24 h after the start of infusion): 0.95; Tolerability of 400 mg/m^2 bolus 5-FU dose [2]: not tolerated
–	–	–	–	CCc1c2c(nc3ccc(OC(=O)N4CCC(N5CCCCC5)CC4)cc13)-c1cc3c(c(=O)n1C2)COC(=O)[C@]3(O)CC [Irinotecan, irinotecan]	within the pre-established boundaries of 0.80 to 1.25	AUC0–24, central value, reference ([1]; FOLFIRI alone, cycle 1 day 1): 10620 ng·h/mL; Cmax ([1]; reference, FOLFIRI alone, cycle 1 day 1): 1780 ng/mL; Cmax ([1]; test, FOLFIRI + veliparib, cycle 1 day 15): 1790 ng/mL
172200 ng·h/mL	39860 ng/mL	180400 ng·h/mL	41870 ng/mL	Nc1nc2c(c(=O)[nH]1)N(C=O)[C@H](CNc1ccc(C(=O)N[C@@H](CCC(=O)O)C(=O)O)cc1)CN2 [(R)-Leucovorin, dextroleucovorin]	within the pre-established boundaries of 0.80 to 1.25	–
28470 ng·h/mL	13270 ng/mL	29360 ng·h/mL	14220 ng/mL	Nc1nc(=O)c2c([nH]1)NC[C@H](CNc1ccc(C(=O)N[C@@H](CCC(=O)O)C(=O)O)cc1)N2C=O [(S)-Leucovorin, levoleucovorin]	within the pre-established boundaries of 0.80 to 1.25	–
–	–	–	–	O=C(c1cc(Cc2n[nH]c(=O)c3ccccc23)ccc1F)N1CCN(C(=O)C2CC2)CC1 [olaparib]	–	Median PFS [3]: 19.1 months

SMILES	AUCt, central value, test [1, 4]	Cmax, central value, test [1, 4]	AUCt, central value, reference ([1]; FOLFIRI alone, cycle 1 day 1)	Cmax, central value, reference ([1]; FOLFIRI alone, cycle 1 day 1)	90% CIs for the relative bioavailability (Cmax and AUCt) [1]	other results
CCc1c2c(nc3ccc(O)cc13)-c1cc3c(c(=O)n1C2)COC(=O)[C@]3(O)CC [SN-38]	157.8 ng·h/mL	17.65 ng/mL	157.9 ng·h/mL	18.31 ng/mL	within the pre-established boundaries of 0.80 to 1.25	–
